Laboratory results: patent US8993756B2 (Merck Sharp & Dohme Corp., priority 2011, dated 2015)

Legend:
JAK2 = JAK2 (Homo sapiens (Human), UniProt O60674); assay: Jak Biochemical HTRF Assay (JAK2); conditions: recombinant GST-tagged catalytic domain, [ATP] 8.5 μM
Procedure: (§1) Biological Assays Jak Biochemical HTRF Assay Protocol
The ability of compounds to inhibit the activity of JAK1, JAK2, JAK3, and Tyk2 was measured using a recombinant purified GST-tagged catalytic domain for each enzyme (Invitrogen JAK1 #M4290, JAK2 #M4290, JAK3 #M4290, Tyk2 #M4290) in an HTRF format biochemical assay. […] The basic assay protocol is as follows: First, 250 nL of diluted compounds in DMSO were dispensed into the wells of a dry 384-well Black plate (Greiner #781076) using a Labcyte Echo 555 acoustic dispenser. Subsequent reagent additions employed an Agilent Bravo. Next, 18 μL of 1.11× enzyme and 1.11× substrate in 1× assay buffer (Invitrogen kinase buffer # PV3189, 2 mM DTT, 0.05% BSA) were added to the wells and shaken and then preincubated for 30 minutes at room temperature to allow compound binding to equilibrate. After equilibration, 2 μL of 10×ATP in 1× assay buffer was added to initiate the kinase reaction and the plates were shaken and then incubated at room temperature for 120 minutes. At the end of the incubation, 20 μL of 2× stop buffer (streptavidin-Dylight 650 (Thermo #84547B100 mL), Eu-tagged pY20 antibody (Perkin Elmer #AD0067), EDTA, HEPES, and Triton) was added to quench the reaction. Plates were shaken and centrifuged and then incubated 60 minutes at room temperature and then read on a Perkin Elmer Envision (λex=337 nm, λem=665 and 615 nm, TRF delay time=20 μs). HTRF signal=10,000*665 nm reading 615 nm reading. After normalization to untreated controls, the percent inhibition of the HTRF signal at each compound concentration was calculated. The plot of percent inhibition versus the log of compound concentration was fit with a 4-parameter dose response equation to calculate IC50 values.

JAK3 = JAK3 (Homo sapiens (Human), UniProt P52333); assay: Jak Biochemical HTRF Assay (JAK3); conditions: recombinant GST-tagged catalytic domain, [ATP] 2.9 μM
Procedure: as §1
The ability of compounds to inhibit the activity of JAK1, JAK2, JAK3, and Tyk2 was measured using a recombinant purified GST-tagged catalytic domain for each enzyme (Invitrogen JAK1 #M4290, JAK2 #M4290, JAK3 #M4290, Tyk2 #M4290) in an HTRF format biochemical assay. […] Subsequent reagent additions employed an Agilent Bravo. […] After equilibration, 2 μL of 10×ATP in 1× assay buffer was added to initiate the kinase reaction and the plates were shaken and then incubated at room temperature for 120 minutes. At the end of the incubation, 20 μL of 2× stop buffer (streptavidin-Dylight 650 (Thermo #84547B100 mL), Eu-tagged pY20 antibody (Perkin Elmer #AD0067), EDTA, HEPES, and Triton) was added to quench the reaction. […] After normalization to untreated controls, the percent inhibition of the HTRF signal at each compound concentration was calculated. The plot of percent inhibition versus the log of compound concentration was fit with a 4-parameter dose response equation to calculate IC50 values.

Sequence of JAK2 (O60674 849-1124): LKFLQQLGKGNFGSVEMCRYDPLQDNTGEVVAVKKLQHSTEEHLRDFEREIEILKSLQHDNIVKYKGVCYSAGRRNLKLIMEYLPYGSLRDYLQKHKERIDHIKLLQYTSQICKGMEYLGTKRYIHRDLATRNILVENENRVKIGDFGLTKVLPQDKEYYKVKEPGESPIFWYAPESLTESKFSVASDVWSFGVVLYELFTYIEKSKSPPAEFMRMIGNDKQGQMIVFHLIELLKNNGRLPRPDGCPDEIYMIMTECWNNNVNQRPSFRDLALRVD
Sequence of JAK3 (P52333 822-1111): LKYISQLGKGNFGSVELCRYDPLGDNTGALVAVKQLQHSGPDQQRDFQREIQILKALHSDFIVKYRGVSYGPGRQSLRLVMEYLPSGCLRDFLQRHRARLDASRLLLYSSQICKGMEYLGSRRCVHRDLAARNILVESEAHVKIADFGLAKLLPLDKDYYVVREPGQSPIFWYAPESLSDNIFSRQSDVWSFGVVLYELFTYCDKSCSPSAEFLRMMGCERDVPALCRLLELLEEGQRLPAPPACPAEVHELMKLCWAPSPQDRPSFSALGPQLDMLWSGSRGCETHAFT

IC50 (JAK2)	IC50 (JAK3)	IC50 (JAK2; given as range class)	IC50 (JAK3; given as range class)	SMILES
91 nM	4.6 nM	–	–	CCOC(=O)c1c[nH]c2ncnc(-c3ccc4c(c3)NCC4)c12 [Example 1-31, ethyl 4-(2,3-dihydro-1H-indol-6-yl)-7H-pyrrolo[2,3-d]pyrimidine-5-carboxylate]
–	–	10 to 500 nM	10 to 500 nM	CCOC(=O)c1c[nH]c2ncnc(-c3ccc(F)cc3)c12 [Example 1-34, ethyl 4-(4-fluorophenyl)-7H-pyrrolo[2,3-d]pyrimidine-5-carboxylate]
134 nM	5.7 nM	–	–	CCOC(=O)c1c[nH]c2ncnc(-c3ccc(O)cc3)c12 [Example 1-35, ethyl 4-(4-hydroxyphenyl)-7H-pyrrolo[2,3-d]pyrimidine-5-carboxylate]
–	–	> 500 nM	10 to 500 nM	CCOC(=O)c1c[nH]c2ncnc(-c3ccc(C(F)(F)F)cc3)c12 [Example 1-36, ethyl 4-[4-(trifluoromethyl)phenyl]-7H-pyrrolo[2,3-d]pyrimidine-5-carboxylate]
–	–	10 to 500 nM	10 to 500 nM	CCOC(=O)c1c[nH]c2ncnc(-c3ccc(C)cc3)c12 [Example 1-37, ethyl 4-(4-methylphenyl)-7H-pyrrolo[2,3-d]pyrimidine-5-carboxylate]
–	–	> 500 nM	10 to 500 nM	CCOC(=O)c1c[nH]c2ncnc(-c3ccccc3C)c12 [Example 1-38, ethyl 4-(2-methylphenyl)-7H-pyrrolo[2,3-d]pyrimidine-5-carboxylate]
186 nM	8.8 nM	–	–	CCOC(=O)c1c[nH]c2ncnc(-c3ccc4ccccc4c3)c12 [Example 1-40, ethyl 4-naphthalen-2-yl-7H-pyrrolo[2,3-d]pyrimidine-5-carboxylate]
168 nM	7.5 nM	–	–	CCOC(=O)c1c[nH]c2ncnc(-c3ccccc3F)c12 [Example 1-41, ethyl 4-(2-fluorophenyl)-7H-pyrrolo[2,3-d]pyrimidine-5-carboxylate]
121 nM	9 nM	–	–	CCOC(=O)c1c[nH]c2ncnc(-c3cccc(F)c3)c12 [Example 1-42, ethyl 4-(3-fluorophenyl)-7H-pyrrolo[2,3-d]pyrimidine-5-carboxylate]
–	–	> 500 nM	10 to 500 nM	CCOC(=O)c1c[nH]c2ncnc(-c3ccccc3Cl)c12 [Example 1-43, ethyl 4-(2-chlorophenyl)-7H-pyrrolo[2,3-d]pyrimidine-5-carboxylate]
127 nM	5.6 nM	–	–	CCOC(=O)c1c[nH]c2ncnc(-c3cccc(O)c3)c12 [Example 1-45, ethyl 4-(3-hydroxyphenyl)-7H-pyrrolo[2,3-d]pyrimidine-5-carboxylate]
143 nM	7.6 nM	–	–	CCOC(=O)c1c[nH]c2ncnc(-c3cccc(C)c3)c12 [Example 1-46, ethyl 4-(3-methylphenyl)-7H-pyrrolo[2,3-d]pyrimidine-5-carboxylate]
66 nM	3.8 nM	–	–	CCOC(=O)c1c[nH]c2ncnc(-c3ccc4c(c3)OCO4)c12 [Example 1-48, ethyl 4-(1,3-benzodioxol-5-yl)-7H-pyrrolo[2,3-d]pyrimidine-5-carboxylate]
–	–	> 500 nM	10 to 500 nM	CCOC(=O)c1c[nH]c2ncnc(-c3ccc4ncccc4c3)c12 [Example 1-49, ethyl 4-quinolin-6-yl-7H-pyrrolo[2,3-d]pyrimidine-5-carboxylate]
35 nM	1.5 nM	–	–	CCOC(=O)c1c[nH]c2ncnc(-c3ccc4[nH]ccc4c3)c12 [Example 1-53, ethyl 4-(1H-indol-5-yl)-7H-pyrrolo[2,3-d]pyrimidine-5-carboxylate]
–	–	> 500 nM	10 to 500 nM	CCOC(=O)c1c[nH]c2ncnc(-c3ccccc3N)c12 [Example 1-55, ethyl 4-(2-aminophenyl)-7H-pyrrolo[2,3-d]pyrimidine-5-carboxylate]
–	–	10 to 500 nM	10 to 500 nM	CCOC(=O)c1c[nH]c2ncnc(-c3ccsc3)c12 [Example 1-57, ethyl 4-thiophen-3-yl-7H-pyrrolo[2,3-d]pyrimidine-5-carboxylate]
–	–	> 500 nM	10 to 500 nM	CCOC(=O)c1c[nH]c2ncnc(-c3ccc(CO)nc3)c12 [Example 1-58, ethyl 4-[6-(hydroxymethyl)pyridin-3-yl]-7H-pyrrolo[2,3-d]pyrimidine-5-carboxylate]
–	–	10 to 500 nM	10 to 500 nM	CCOC(=O)c1c[nH]c2ncnc(-c3cccc(OC(F)F)c3)c12 [Example 1-59, ethyl 4-[3-(difluoromethoxy)phenyl]-7H-pyrrolo[2,3-d]pyrimidine-5-carboxylate]
–	–	> 500 nM	10 to 500 nM	CCOC(=O)c1c[nH]c2ncnc(-c3ccnc(CO)c3)c12 [Example 1-60, ethyl 4-[2-(hydroxymethyl)pyridin-4-yl]-7H-pyrrolo[2,3-d]pyrimidine-5-carboxylate]

The next lines start with the compound.

SMILES	IC50 (JAK2)	IC50 (JAK3)	IC50 (JAK2; given as range class)	IC50 (JAK3; given as range class)
CCOC(=O)c1c[nH]c2ncnc(-c3ccc(COC)c(N)c3)c12 [Example 1-33, ethyl 4-[3-amino-4-(methoxymethyl)phenyl]-7H-pyrrolo[2,3-d]pyrimidine-5-carboxylate]	–	–	> 500 nM	10 to 500 nM
CCOC(=O)c1c[nH]c2ncnc(-c3ccc(-c4ccccc4)cc3)c12 [Example 1-44, ethyl 4-biphenyl-4-yl-7H-pyrrolo[2,3-d]pyrimidine-5-carboxylate]	47 nM	4.2 nM	–	–
CCOC(=O)c1c[nH]c2ncnc(-c3ccc(N(C)C)cc3)c12 [Example 1-47, ethyl 4-[4-(dimethylamino)phenyl]-7H-pyrrolo[2,3-d]pyrimidine-5-carboxylate]	90 nM	3.3 nM	–	–
CCOC(=O)c1c[nH]c2ncnc(-c3cc4ccccc4s3)c12 [Example 1-50, ethyl 4-(1-benzothiophen-2-yl)-7H-pyrrolo[2,3-d]pyrimidine-5-carboxylate]	54 nM	4.8 nM	–	–
CCOC(=O)c1c[nH]c2ncnc(-c3cn[nH]c3)c12 [Example 1-51, ethyl 4-(1H-pyrazol-4-yl)-7H-pyrrolo[2,3-d]pyrimidine-5-carboxylate]	–	–	> 500 nM	10 to 500 nM
CCOC(=O)c1c[nH]c2ncnc(-c3cc4ccccc4o3)c12 [Example 1-54, ethyl 4-(1-benzofuran-2-yl)-7H-pyrrolo[2,3-d]pyrimidine-5-carboxylate]	61 nM	4 nM	–	–
CCOC(=O)c1c[nH]c2ncnc(-c3cccs3)c12 [Example 1-56, ethyl 4-thiophen-2-yl-7H-pyrrolo[2,3-d]pyrimidine-5-carboxylate]	–	–	10 to 500 nM	10 to 500 nM
CCOC(=O)c1c[nH]c2ncnc(-c3cccc4ccsc34)c12 [Example 1-61, ethyl 4-(1-benzothiophen-7-yl)-7H-pyrrolo[2,3-d]pyrimidine-5-carboxylate]	–	–	> 500 nM	10 to 500 nM
CCOC(=O)c1c[nH]c2ncnc(-c3cnn4c3CCCC4)c12 [Example 1-62, ethyl 4-(4,5,6,7-tetrahydropyrazolo[1,5-a]pyridin-3-yl)-7H-pyrrolo[2,3-d]pyrimidine-5-carboxylate]	–	–	> 500 nM	10 to 500 nM
CCOC(=O)c1c[nH]c2ncnc(-c3coc4ccccc34)c12 [Example 1-63, ethyl 4-(1-benzofuran-3-yl)-7H-pyrrolo[2,3-d]pyrimidine-5-carboxylate]	–	–	> 500 nM	10 to 500 nM
CCOC(=O)c1c[nH]c2ncnc(-c3cccc4[nH]ncc34)c12 [Example 1-64, ethyl 4-(1H-indazol-4-yl)-7H-pyrrolo[2,3-d]pyrimidine-5-carboxylate]	–	–	> 500 nM	10 to 500 nM
CCOC(=O)c1c[nH]c2ncnc(-c3ccc4c(c3)CNC4=O)c12 [Example 1-65, ethyl 4-(1-oxo-2,3-dihydro-1H-isoindol-5-yl)-7H-pyrrolo[2,3-d]pyrimidine-5-carboxylate]	–	–	10 to 500 nM	10 to 500 nM
CCOC(=O)c1c[nH]c2ncnc(-c3ccc4c(c3)n(C)c(=O)n4C)c12 [Example 1-66, ethyl 4-(1,3-dimethyl-2-oxo-2,3-dihydro-1H-benzimidazol-5-yl)-7H-pyrrolo[2,3-d]pyrimidine-5-carboxylate]	–	–	> 500 nM	10 to 500 nM
